Laboratory results as given in ChEMBL document CHEMBL3585254, “Synthesis and structural characterization of natural benzofuranoids” (J Nat Prod, 2015).

Tested on: HL-60
Test: Growth inhibition of human HL60 cells
Type: functional, cell-based

`CC(C)=C1Oc2c(ccc(CC(C)O)c2CO)C1=O` (stereo unspecified) [USTUSORANE A] gave an IC50 of 0.13 µM.
